Results published in PMC4291223, “Inhibitors of CLK Protein Kinases Suppress Cell Growth and Induce Apoptosis by Modulating Pre-mRNA Splicing” (PLoS ONE, 2015).

How the values were obtained:
PI3Kα = PI3Kα (Homo sapiens, UniProt P42336); assay: Kinase panel assay (Z'-LYTE, SelectScreen), PI3Kα; type: biochemical; details: 1 μM compound, 100 μM ATP; among kinases inhibited by more than 50%
Description: Kinase panel assays were performed using the FRET-based Z’- LYTE enzymatic kinase assay system (Life Technologies, Carlsbad, CA), which was carried out using the SelectScreen Kinase Profiling Service (Life Technologies). The standard reaction contained 2 μM peptide substrate, 100 μM ATP, 50 mM HEPES (pH 7.5), 0.01% Brij-35, 10 mM MgCl2, 1 mM EGTA, and each kinase. Cpd-1, Cpd-2, and Cpd-3 at two point concentration (100 and 1000 nM) with duplicate data points (n = 2) were assayed following the detailed procedures outlined in the SelectScreen. The full assay protocol and conditions can be obtained at www.lifetechnologies.com. Percent inhibition represents a ratio of phosphorylated product formed in the presence of the compound compared with phosphorylated product formed in reactions containing 1% DMSO. Inhibition data indicates the mean value of kinase inhibition from duplicate data.

[1] = system: S6K, EIF3D, and EGFR in MDA-MB-468 cells; assay: Immunoblot of S6K, EIF3D and EGFR protein levels; type: cell-based, human; details: MDA-MB-468, 24 h
Description: Cells were lysed in radioimmunoprecipitation assay buffer containing 50 mM Tris-HCl (pH 7.6), 150 mM NaCl, 1% Triton X-100, and protease inhibitor cocktail tablets (Roche). After removal of the insoluble matter by centrifugation at 15,000 rpm for 15 min, the protein concentrations of the supernatants were determined using a BCA Protein Assay Kit (Pierce Biotechnology, Rockford, IL). The lysates were directly combined with one-quarter volume of 5× sample buffer [25 mmol/L Tris-HCl pH 6.8, 10% glycerol, 0.8% SDS, and 0.004% bromophenol blue] and boiled at 100°C for 5 min. The samples were subjected to 5–20% gradient SDS-polyacrylamide gel electrophoresis, and the separated proteins were electrophoretically transferred to polyvinylidene difluoride membranes using an I-blot System (Invitrogen). The membranes were incubated with primary antibodies and visualized using enhanced chemiluminescence reagents (GE Healthcare). The primary antibodies were as follows: anti-phospho-SR (1H4), anti-SR (Invitrogen), anti-EGFR, anti-EIF3D, anti-GAPDH (Santa Cruz Biotechnology, Santa Cruz, CA), anti-S6K and anti-PARP (Cell Signaling Technology, Danvers, MA).

Sequence of PI3Kα (P42336 whole entry): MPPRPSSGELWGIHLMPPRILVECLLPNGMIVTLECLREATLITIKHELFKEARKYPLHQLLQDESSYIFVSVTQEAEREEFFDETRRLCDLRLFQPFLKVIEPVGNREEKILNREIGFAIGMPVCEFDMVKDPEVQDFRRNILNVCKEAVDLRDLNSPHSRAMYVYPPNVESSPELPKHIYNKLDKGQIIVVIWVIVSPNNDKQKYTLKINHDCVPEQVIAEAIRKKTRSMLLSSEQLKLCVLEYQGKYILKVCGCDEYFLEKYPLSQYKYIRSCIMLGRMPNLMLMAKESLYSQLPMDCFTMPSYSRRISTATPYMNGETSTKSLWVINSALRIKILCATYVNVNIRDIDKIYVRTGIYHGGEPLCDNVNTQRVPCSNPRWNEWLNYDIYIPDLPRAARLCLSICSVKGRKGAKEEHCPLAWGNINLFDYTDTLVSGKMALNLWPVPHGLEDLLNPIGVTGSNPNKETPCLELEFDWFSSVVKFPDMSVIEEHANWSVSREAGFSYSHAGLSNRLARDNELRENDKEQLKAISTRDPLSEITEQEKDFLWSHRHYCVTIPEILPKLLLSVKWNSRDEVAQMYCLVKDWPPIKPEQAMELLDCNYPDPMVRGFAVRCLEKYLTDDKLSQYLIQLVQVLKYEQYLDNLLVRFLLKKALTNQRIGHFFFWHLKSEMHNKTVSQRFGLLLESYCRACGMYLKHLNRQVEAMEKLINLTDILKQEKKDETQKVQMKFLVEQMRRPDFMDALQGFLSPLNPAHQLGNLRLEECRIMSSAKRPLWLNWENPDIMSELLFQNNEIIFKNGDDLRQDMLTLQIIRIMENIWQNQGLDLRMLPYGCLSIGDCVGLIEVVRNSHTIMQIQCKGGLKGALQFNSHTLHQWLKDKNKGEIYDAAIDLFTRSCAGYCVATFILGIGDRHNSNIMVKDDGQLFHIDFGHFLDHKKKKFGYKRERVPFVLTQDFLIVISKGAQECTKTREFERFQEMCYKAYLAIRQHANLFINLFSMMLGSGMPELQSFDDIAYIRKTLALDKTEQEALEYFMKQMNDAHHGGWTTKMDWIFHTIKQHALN
Sequence of PI3Kα (P27986 whole entry partner): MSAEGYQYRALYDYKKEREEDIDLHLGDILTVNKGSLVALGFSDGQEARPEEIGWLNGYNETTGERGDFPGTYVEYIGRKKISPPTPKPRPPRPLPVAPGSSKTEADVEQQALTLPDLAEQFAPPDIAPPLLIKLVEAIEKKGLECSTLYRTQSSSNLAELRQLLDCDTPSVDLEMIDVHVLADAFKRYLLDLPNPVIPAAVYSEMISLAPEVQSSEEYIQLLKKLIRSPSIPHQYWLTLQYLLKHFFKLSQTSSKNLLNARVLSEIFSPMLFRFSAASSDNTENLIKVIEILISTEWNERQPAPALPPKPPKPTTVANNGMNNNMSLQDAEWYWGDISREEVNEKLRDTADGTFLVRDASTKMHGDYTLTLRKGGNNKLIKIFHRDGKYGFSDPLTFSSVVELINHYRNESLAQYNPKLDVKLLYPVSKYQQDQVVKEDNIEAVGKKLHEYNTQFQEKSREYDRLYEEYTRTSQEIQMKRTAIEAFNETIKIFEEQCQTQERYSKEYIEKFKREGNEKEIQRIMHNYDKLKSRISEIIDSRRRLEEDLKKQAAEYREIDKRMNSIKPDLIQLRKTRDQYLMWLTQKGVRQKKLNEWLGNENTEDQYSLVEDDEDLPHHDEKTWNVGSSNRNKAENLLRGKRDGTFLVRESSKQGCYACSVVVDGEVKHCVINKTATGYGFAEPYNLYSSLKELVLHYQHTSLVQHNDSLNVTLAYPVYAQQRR

inhibition of PI3Kα in kinase panel (PI3Kα): moderately inhibited
Compound: CC(C)(C)c1ccc(C(=O)Nc2cn3cc(-c4cn[nH]c4)ccc3n2)cn1 [Cpd-2, 6-tert-butyl-N-(6-(1H-pyrazol-4-yl)imidazo[1,2-a]pyridin-2-yl)nicotinamide]
protein levels of S6K, EIF3D, and EGFR [1]: reduced the protein levels of S6K, EIF3D, and EGFR in a concentration-dependent manner
